Results taken from BindingDB's records for patent US20250230171 (Moma Therapeutics, 2025).

Target: T1, DNA polymerase theta (POLQ) (2-894)
T1 construct: 2-894
Assay: ATPase Assay
Procedure: POLθ-mediated ATP hydrolysis was measured using the ADP-Glo Kinase Assay (Promega Corporation, Madison, WI). Reactions were performed in white 384-well small-volume microplates (Greiner Bio-One, Frickenhausen, Germany) using a total volume of 15 μL. The ATPase reaction consisted of 1 nM biotinylated Avi-POLθ[2-894], 5 nM of a 50 nucleotide poly-thymine repeat single-stranded DNA (PolyT(50) ssDNA), and 100 μM ATP in 5 μL of assay buffer (50 mM Tris, pH 7.5, 80 mM KCl, 10 MgCl2, 1 mM DTT, 5% glycerol, 0.01% BSA, 0.01% Tween-20). Inhibition of POLΘATPase activity was determined by preparing 11-point serial dilutions of the test compounds in 100% DMSO, then transferring 30 nL of the compounds into the ATPase reaction using an Echo acoustic liquid handler (Beckman Coulter, Brea, CA). DMSO-treated wells containing either all of the reaction components (1 nM biotinylated Avi-POLθ[2-894], 5 nM PolyT(50) ssDNA, 100 μM ATP) or with assay buffer substituted for the biotinylated Avi-POLθ[2-894](0 nM biotinylated Avi-POLθ[2-894], 5 nM PolyT(50) ssDNA, 100 μM ATP) were used to define the maximum and minimum response in the assay. Following a one-hour incubation at ambient temperature, 5 μL of ADP-Glo Reagent was added to the ATPase reaction, and this mixture was allowed to incubate at ambient temperature for an additional hour. Lastly, 5 μL of Kinase Detection Reagent was added, followed by a third one-hour incubation at ambient temperature. The reagent concentrations listed represent the amounts only in the 5 μL ATPase reaction volume.

IC50 [nM]	SMILES
8	COc1cnc(Cl)cc1-c1cc(C)ncc1C(=O)Nc1nc2c(s1)CN(C(=O)c1ncccc1Cl)C2 [US20250230171, Compound 459]
8	COc1cnc(Cl)cc1-c1cc(C)ncc1C(=O)Nc1nc2c(s1)CN(C(=O)c1ncncc1OC)C2 [US20250230171, Compound 514]
8	COc1cnc(Cl)cc1-c1cc(C)ncc1C(=O)Nc1nc2c(s1)CN(C(=O)c1cccc(C)n1)C2 [US20250230171, Compound 497]
8	COc1cnc(Cl)cc1-c1cc(C)ncc1C(=O)Nc1nc2c(s1)CN(C(=O)c1c(C#N)cnn1C)C2 [US20250230171, Compound 515]
32.5	COc1cnc(Cl)cc1-c1cc(C)ncc1C(=O)Nc1nc2c(s1)CN(C(=O)C1CC13CC3)C2 (racemic) [US20250230171, Compound 535]
8	COc1ccc(C#N)cc1-c1cc(C)ncc1C(=O)Nc1nc2c(s1)CN(C(=O)c1ccc(C(F)F)cc1Cl)C2 [US20250230171, Compound 519]
8	COc1ccc(C#N)cc1-c1cc(C)ncc1C(=O)Nc1nc2c(s1)CN(C(=O)c1ccc(OC(F)F)cc1)C2 [US20250230171, Compound 503]
8	COc1cnc(Cl)cc1-c1cc(C)ncc1C(=O)Nc1nc2c(s1)CN(C(=O)c1ccc(OC)c3cncn13)C2 [US20250230171, Compound 502]
8	COc1cnc(Cl)cc1-c1cc(C)ncc1C(=O)Nc1nc2c(s1)CN(C(=O)c1cnc(OC)c(C(F)F)n1)C2 [US20250230171, Compound 531]
8	COc1cnc(Cl)cc1-c1cc(C)ncc1C(=O)Nc1nc2c(s1)CN(C(=O)c1ncc(C(C)(F)F)cc1Cl)C2 [US20250230171, Compound 501]
8	COc1cnc(Cl)cc1-c1cc(C)ncc1C(=O)Nc1nc2c(s1)CN(C(=O)c1nc(C)ncc1OC)C2 [US20250230171, Compound 493]
8	COc1cnc(Cl)cc1-c1cc(C)ncc1C(=O)Nc1nc2c(s1)CN(C(=O)c1cc(Cl)cc(C)n1)C2 [US20250230171, Compound 505]
8	COc1cnc(Cl)cc1-c1cc(C)ncc1C(=O)Nc1nc2c(s1)CN(C(=O)C1CCCC(OC(F)(F)F)C1)C2 (racemic) [US20250230171, Compound 485]
8	COc1cnc(Cl)cc1-c1cc(C)ncc1C(=O)Nc1nc2c(s1)CN(C(=O)c1cccn3cncc13)C2 [US20250230171, Compound 462]
8	COc1ncc(Cl)c(C(=O)N2Cc3nc(NC(=O)c4cnc(C)cc4-c4cc(Cl)ncc4OC)sc3C2)n1 [US20250230171, Compound 481]
32.5	COc1cnc(Cl)cc1-c1cc(C)ncc1C(=O)Nc1nc2c(s1)CN(C(=O)c1nc(C)cn1C)C2 [US20250230171, Compound 543]
8	COc1cnc(Cl)cc1-c1cc(C)ncc1C(=O)Nc1nc2c(s1)CN(C(=O)C1CC3(CC(C#N)C3)C1)C2 (stereo not drawn) [US20250230171, Compound 532]
100	COc1cnc(Cl)cc1-c1cc(C)ncc1C(=O)Nc1nc2c(s1)CN(C(=O)c1cnc(C)n1C)C2 [US20250230171, Compound 546]
8	COc1cnc(Cl)cc1-c1cc(C)ncc1C(=O)Nc1nc2c(s1)CN(C(=O)c1nc(C)ccc1Cl)C2 [US20250230171, Compound 498]
8	COc1cnc(Cl)cc1-c1cc(C)ncc1C(=O)Nc1nc2c(s1)CN(S(=O)(=O)c1ccccn1)C2 [US20250230171, Compound 507]
32.5	COc1ccc(C#N)cc1-c1cc(C)ncc1C(=O)Nc1nc2c(s1)CN(C(=O)c1cccc(C(F)F)n1)C2 [US20250230171, Compound 538]
32.5	COc1ncc(Cl)cc1-c1cc(C)ncc1C(=O)Nc1nc2c(s1)CN(C(=O)c1cccc(C(F)F)n1)C2 [US20250230171, Compound 539]
8	COc1cnc(Cl)cc1-c1cc(C)ncc1C(=O)Nc1nc2c(s1)CN(C(=O)c1ncc(Cl)cc1C(C)(F)F)C2 [US20250230171, Compound 595]
8	COc1cnc(Cl)cc1-c1cc(C)ncc1C(=O)Nc1nc2c(s1)CN(C(=O)C1CC3(CC(F)C3)C1)C2 (stereo not drawn) [US20250230171, Compound 473]
8	COc1cnc(Cl)cc1-c1cc(C)ncc1C(=O)Nc1nc2c(s1)CN(C(=O)c1nccnc1C)C2 [US20250230171, Compound 520]
8	COc1cnc(Cl)cc1-c1cc(C)ncc1C(=O)Nc1nc2c(s1)CN(C(=O)c1nc(C)c(C)o1)C2 [US20250230171, Compound 529]
8	COc1cnc(Cl)cc1-c1cc(C)ncc1C(=O)Nc1nc2c(s1)CN(C(=O)c1cnc(C(F)(F)F)nc1C)C2 [US20250230171, Compound 477]
8	COc1cnc(Cl)cc1-c1cc(C)ncc1C(=O)Nc1nc2c(s1)CN(C(=O)c1cc(Cl)cnc1OC)C2 [US20250230171, Compound 486]
8	COc1cnc(Cl)cc1-c1cc(C)ncc1C(=O)Nc1nc2c(s1)CN(C(=O)c1nc(C)ncc1Cl)C2 [US20250230171, Compound 479]

The next lines start with the compound.

SMILES	IC50 [nM]
COc1cnc(Cl)cc1-c1cc(C)ncc1C(=O)Nc1nc2c(s1)CN(C(=O)c1ccnc(C(F)(F)F)n1)C2 [US20250230171, Compound 443]	8
COc1cnc(Cl)cc1-c1cc(C)ncc1C(=O)Nc1nc2c(s1)CN(C(=O)c1c(Cl)c(C)nn1C)C2 [US20250230171, Compound 408]	8
COc1cnc(Cl)cc1-c1cc(C)ncc1C(=O)Nc1nc2c(s1)CN(C(=O)c1ccc(F)c(Cl)n1)C2 [US20250230171, Compound 411]	8
COc1cnc(Cl)cc1-c1cc(C)ncc1C(=O)Nc1nc2c(s1)CN(C(=O)c1nn(C)cc1F)C2 [US20250230171, Compound 435]	8
COc1cnc(Cl)cc1-c1cc(C)ncc1C(=O)Nc1nc2c(s1)CN(C(=O)c1ccc(C(F)F)nc1OC)C2 [US20250230171, Compound 384]	8
COc1cnc(Cl)cc1-c1cc(C)ncc1C(=O)Nc1nc2c(s1)CN(C(=O)c1ncc(C(F)F)cn1)C2 [US20250230171, Compound 400]	8
COc1cnc(Cl)cc1-c1cc(C)ncc1C(=O)Nc1nc2c(s1)CN(C(=O)c1ccc(C(F)F)nn1)C2 [US20250230171, Compound 454]	8
COc1cnc(Cl)cc1-c1cc(C)ncc1C(=O)Nc1nc2c(s1)CN(C(=O)c1ccc(OC(F)F)nc1)C2 [US20250230171, Compound 32]	8
COc1cnc(Cl)cc1-c1cc(C)ncc1C(=O)Nc1nc2c(s1)CN(C(=O)c1cnc(C(F)F)c(Cl)c1)C2 [US20250230171, Compound 445]	8
COc1ccc(C#N)cc1-c1cc(C)ncc1C(=O)Nc1nc2c(s1)CN(C(=O)c1ccc(C(F)F)cc1)C2 [US20250230171, Compound 438]	8
COc1cnc(Cl)cc1-c1cc(C)ncc1C(=O)Nc1nc2c(s1)CN(C(=O)c1nn(C)cc1N)C2 [US20250230171, Compound 458]	8
COc1cnc(Cl)cc1-c1cc(C)ncc1C(=O)Nc1nc2c(s1)CN(C(=O)C1CC3(CC(OC(F)F)C3)C1)C2 (stereo not drawn) [US20250230171, Compound 456]	8
COc1cnc(Cl)cc1-c1cc(C)ncc1C(=O)Nc1nc2c(s1)CN(C(=O)c1nc(Cl)ccc1C)C2 [US20250230171, Compound 450]	8
COc1cnc(Cl)cc1-c1cc(C)ncc1C(=O)Nc1nc2c(s1)CN(C(=O)c1cnc(C)c(C)n1)C2 [US20250230171, Compound 416]	8
COc1cnc(Cl)cc1-c1cc(C)ncc1C(=O)Nc1nc2c(s1)CN(C(=O)c1ccc(C(F)F)c(Cl)c1)C2 [US20250230171, Compound 381]	8
COc1cnc(Cl)cc1-c1cc(C)ncc1C(=O)Nc1nc2c(s1)CN(C(=O)C1CC3(CC(C)C3)C1)C2 (stereo not drawn) [US20250230171, Compound 418]	8
COc1cnc(Cl)cc1-c1cc(C)ncc1C(=O)Nc1nc2c(s1)CN(C(=O)c1nc(C(F)F)ccc1OC)C2 [US20250230171, Compound 415]	8
COc1cnc(Cl)cc1-c1cc(C)ncc1C(=O)Nc1nc2c(s1)CN(C(=O)c1nccc(C(F)(F)F)n1)C2 [US20250230171, Compound 431]	8
COc1cnc(Cl)cc1-c1cc(C)ncc1C(=O)Nc1nc2c(s1)CN(C(=O)c1ncc(C(F)F)cc1OC)C2 [US20250230171, Compound 412]	8
COc1ccc(C#N)cc1-c1cc(C)ncc1C(=O)Nc1nc2c(s1)CN(C(=O)c1cccc(Cl)c1OC)C2 [US20250230171, Compound 422]	8
COc1ccc(C#N)cc1-c1cc(C)ncc1C(=O)Nc1nc2c(s1)CN(C(=O)c1cc(C(F)F)ccc1F)C2 [US20250230171, Compound 433]	8
COc1cnc(C(=O)N2Cc3nc(NC(=O)c4cnc(C)cc4-c4cc(Cl)ncc4OC)sc3C2)c(OC)n1 [US20250230171, Compound 440]	8
COc1cnc(Cl)cc1-c1cc(C)ncc1C(=O)Nc1nc2c(s1)CN(C(=O)c1nccnc1OC)C2 [US20250230171, Compound 437]	8
COc1cnc(Cl)cc1-c1cc(C)ncc1C(=O)Nc1nc2c(s1)CN(C(=O)c1ccc(C(F)F)cc1F)C2 [US20250230171, Compound 382]	8
